The supplement of paper PMC5412046
Structures can show the parent of a compound that is named as a salt.

Columns and labels:
SB.msgc-1 = experiment: AC50 for growth inhibition (viability) (log10 M); higher = less potent; conditions: SB.msgc-1 (sporadic gastric cancer)
Procedure, shortened: (§1)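 After 48 h with compound, plates received CellTiter-Glo for 30 min at room temperature and were read for luminescence on a ViewLux. The cells were patient-derived gastric cancer lines of hereditary or sporadic origin, plated at 500 cells in 5 μL medium per 1536 well and pinned with 23 nL compound in DMSO, at 11 threefold dilutions from a final 46 μM. For the log half-maximal activity concentration, DMSO-normalised viability was fitted with four parameters and only high-quality curve classes were kept.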

SB.mhdgc-1 = experiment: as above; conditions: SB.mhdgc-1 (hereditary c.1380delA CDH1 gastric cancer)
Procedure, shortened: as §1

Compound | AC50 for growth inhibition (log10 M) (SB.msgc-1) | AC50 for growth inhibition (log10 M) (SB.mhdgc-1)
COc1cc([C@@H]2c3cc4c(cc3[C@@H](O[C@@H]3O[C@@H]5CO[C@@H](c6cccs6)O[C@H]5[C@H](O)[C@H]3O)[C@H]3COC(=O)[C@H]23)OCO4)cc(OC)c1O [Teniposide] | -6.03 | -7.13
CC(C)(C)C(=O)OCOP(=O)(COCCn1cnc2c(N)ncnc21)OCOC(=O)C(C)(C)C [Adefovir dipivoxil] | -5.28 | -6.93
c1ccc2c(CCNc3ccc(Nc4ccncc4)cc3)c[nH]c2c1 [Serdemetan] | -4.73 | -5.63
O=C(CCCCCCNC(=O)c1cnc(N(c2ccccc2)c2ccccc2)nc1)NO [ACY-1215] | -5.08 | -5.23
CCOC(=O)\C1=C\[C@]2(CC)CCCN3CCC4=C([C@H]23)[N]1C5=C4C=CC=C5 [Vinpocetine] | -4.63 | -4.93
CN(C)CCCN1c2ccccc2CCc2ccc(Cl)cc21 [Clomipramine hydrochloride] | -5.93 | -6.13
CC(C)N(CCCNC(=O)Nc1ccc(C(C)(C)C)cc1)C[C@H]1O[C@@H](n2cc(Br)c3c(N)ncnc32)[C@H](O)[C@@H]1O [SGC0946] | -4.53 | -4.68
C=C1C(=O)O[C@@H]2[C@H]3O[C@]3(C)CC/C=C(\C)CC[C@@H]12 [Parthenolide] | -4.83 | -5.18
N=C1S/C(=C\c2ccc(-c3ccc4c(c3)C(=O)NC4=O)o2)C(=O)N1c1ccc(Br)cc1 [Bioymifi] | -5.43 | -5.28
CN1/C=C(\N=C(NC2=CC=C(C=C2)C(=O)N3CCOCC3)/C1=O)/C4=C(C)C(=CC=C4)NC(=O)C5=CC=C(C=C5)C(C)(C)C [CGI-1746] | -5.23 | -4.63
N=C(NCCCCCCNC(=N)NC(=N)Nc1ccc(Cl)cc1)NC(=N)Nc1ccc(Cl)cc1 [Chlorhexidine] | -5.43 | -5.28
CCOc1cc(C(=O)Nc2ccc(Cl)c(-c3nc4ccccc4[nH]3)c2)cc(OCC)c1OCC [SANT-2] | -5.18 | -5.93
CC[C@H](CC#N)OC(=O)N[C@@H](C)c1cccc(NC(=O)Nc2ccc(-c3cnco3)c(OC)c2)c1 [AVN-944] | -5.23 | -5.88
CCN1CCN(CC1)CC(=O)NC2=CC=C(C3=C2C4=C(S3)C=CC=C4)C5=C6O\C(=C/C(=O)C6=CC=C5)N7CCOCC7 | -5.68 | -5.73
Cc1cc(Nc2ncc3c(n2)N(C)C(=O)N(c2cc(NC(=O)c4cccc(C(F)(F)F)c4)ccc2C)C3)n(C)n1 [Pluripotin] | -6.08 | -5.23
NC\1=N\C(=O)N(\C=C1F)[C@H]2C[C@H](O)[C@@H](CO)O2 | -6.53 | -8.38
Cc1cc(CN2CCN(c3c(Br)cnc4[nH]c(-c5ccc(N6CCN(C)CC6)cc5)nc34)CC2)no1 | -4.68 | -4.63

Compound | AC50 for growth inhibition (log10 M) (SB.msgc-1) | AC50 for growth inhibition (log10 M) (SB.mhdgc-1)
COc1cc2c(Oc3ccc(NC(=O)C4(C(=O)Nc5ccc(F)cc5)CC4)cc3F)ccnc2cc1OCCCN1CCOCC1 [Foretinib] | -4.73 | -4.83
CC(C)c1cnn2c(NCc3ccccc3)cc(N[C@@H](CO)[C@H](O)CO)nc12 [BS-194] | -6.58 | -6.73
CCOc1cc(N2CCC(O)CC2)ccc1Nc1ncc2c(n1)N(C)c1ccccc1C(=O)N2C [XMD8-92] | -5.18 | -5.98
O=[S+]([O-])(NCCNC/C=C/c1ccc(Br)cc1)c1cccc2cnccc12 [H-89] | -4.73 | -4.88
CNc1nccc(-c2cccnc2Oc2cc(C(=O)Nc3cccc(C(F)(F)F)c3)ccc2C)n1 [AMG-Tie2-1] | -4.63 | -4.83
COc1ccc(-c2nc(N3CCOCC3)c3sc(CN(C)c4ncc(C(=O)NO)cn4)cc3n2)cn1 [CUDC-907] | -7.83 | -6.28
CC(=O)O[C@H]1C[C@@H]2CC[C@@H]3[C@H](CC[C@@]4(C)[C@H]3C[C@H]([N+]3(C)CCCCC3)[C@@H]4OC(C)=O)[C@@]2(C)C[C@@H]1N1CCCCC1 [Vecuronium bromide] | -5.58 | -5.93
Cc1ccc(C(=O)Nc2cccc(C(F)(F)F)c2)cc1Nc1nc(-c2cccnc2)nc2c1cnn2C [NVP-BHG712] | -4.78 | -4.83
C[C@@H](NC1=CC=CC=C1C(O)=O)C/2=C/C(=C\N3C(=O)/C=C(\N=C23)N4CCOCC4)C [AZD-6482] | -4.87 | -4.82
Cl.Cl.Cl.O[C@@H](COc1cccc2ncccc12)CN1CCN([C@@H]2c3ccccc3[C@@H]3[C@H](c4ccccc42)C3(F)F)CC1 [Zosuquidar trihydrochloride] | -5.28 | -4.93
CCc1ccc(C(=O)Nc2cc(CN3CCN(C)CC3)cc(C(F)(F)F)c2)cc1C#Cc1cnc2ccnn2c1 [PRP003-013] | -4.78 | -5.13
CN1CCN(CCCN2c3ccccc3Sc3ccc(C(F)(F)F)cc32)CC1 [Stelazine  trifluoperzine] | -5.08 | -5.63
FC(F)c1nc2ccccc2n1-c1nc(N2CCOCC2)nc(N2CCOCC2)n1 [ZSTK-474] | -5.98 | -6.48
CCc1cc(-c2n[nH]c(C)c2-c2ccc3c(c2)OCCO3)c(O)cc1O | -5.68 | -5.53
CC1(C)CC\C2=C(/O1)C3=C(C=CC=C3)C(=O)C2=O [beta-Lapachone] | -4.63 | -4.58
CO[C@@H]1[C@H](N(C)C(=O)c2ccccc2)C[C@H]2O[C@]1(C)n1c3ccccc3c3c4c(c5c6ccccc6n2c5c31)C(=O)NC4 [Midostaurin] | -5.38 | -5.63
